Laboratory results: ChEMBL document CHEMBL1649393, “Synthesis and antimicrobial activity of thiosemicarbazides, s-triazoles and their Mannich bases bearing 3-chlorophenyl moiety” (2011)

Legend:
Assay type in all cases: functional
[1] = tested on: Staphylococcus aureus; experiment: Antimicrobial activity against Staphylococcus aureus ATCC 6538 assessed as >99.9 % reduction in CFU after 18 hrs by broth microdilution method; settings: ATCC 6538, 18 h
[2] = tested on: Staphylococcus epidermidis; experiment: Antimicrobial activity against Staphylococcus epidermidis ATCC 12228 after 18 hrs by broth microdilution method; settings: ATCC 12228, 18 h
[3] = tested on: Micrococcus luteus; experiment: Antimicrobial activity against Micrococcus luteus ATCC 10240 after 18 hrs by broth microdilution method; settings: ATCC 10240, 18 h
[4] = tested on: Bacillus cereus; experiment: Antimicrobial activity against Bacillus cereus ATCC 10876 after 18 hrs by broth microdilution method; settings: ATCC 10876, 18 h
[5] = tested on: Klebsiella pneumoniae; experiment: Antimicrobial activity against Klebsiella pneumoniae ATCC 13883 after 18 hrs by broth microdilution method; settings: ATCC 13883, 18 h
[6] = tested on: Staphylococcus epidermidis; experiment: Antimicrobial activity against Staphylococcus epidermidis ATCC 12228 assessed as >99.9 % reduction in CFU after 18 hrs by broth microdilution method; settings: ATCC 12228, 18 h
[7] = tested on: Micrococcus luteus; experiment: Antimicrobial activity against Micrococcus luteus ATCC 10240 assessed as >99.9 % reduction in CFU after 18 hrs by broth microdilution method; settings: ATCC 10240, 18 h
[8] = tested on: Bacillus subtilis; experiment: Antimicrobial activity against Bacillus subtilis ATCC […] after 18 hrs by broth microdilution method
[9] = tested on: Klebsiella pneumoniae; experiment: Antimicrobial activity against Klebsiella pneumoniae ATCC 13883 assessed as >99.9 % reduction in CFU after 18 hrs by broth microdilution method; settings: ATCC 13883, 18 h
[10] = tested on: Escherichia coli; experiment: Antimicrobial activity against Escherichia coli ATCC 25922 after 18 hrs by broth microdilution method; settings: ATCC 25922, 18 h
[11] = tested on: Staphylococcus aureus; experiment: Antimicrobial activity against Staphylococcus aureus ATCC 6538 after 18 hrs by broth microdilution method; settings: ATCC 6538, 18 h
[12] = tested on: Staphylococcus aureus; experiment: Antimicrobial activity against Staphylococcus aureus ATCC 25923 assessed as >99.9 % reduction in CFU after 18 hrs by broth microdilution method; settings: ATCC 25923, 18 h
[13] = tested on: Staphylococcus aureus; experiment: Antimicrobial activity against Staphylococcus aureus ATCC 25923 after 18 hrs by broth microdilution method; settings: ATCC 25923, 18 h
[14] = tested on: Proteus mirabilis; experiment: Antimicrobial activity against Proteus mirabilis ATCC 12453 assessed as >99.9 % reduction in CFU after 18 hrs by broth microdilution method; settings: ATCC 12453, 18 h
[15] = tested on: Escherichia coli; experiment: Antimicrobial activity against Escherichia coli ATCC 25922 assessed as >99.9 % reduction in CFU after 18 hrs by broth microdilution method; settings: ATCC 25922, 18 h
[16] = tested on: Proteus mirabilis; experiment: Antimicrobial activity against Proteus mirabilis ATCC 12453 after 18 hrs by broth microdilution method; settings: ATCC 12453, 18 h
[17] = tested on: Bacillus cereus; experiment: Antimicrobial activity against Bacillus cereus ATCC 10876 assessed as >99.9 % reduction in CFU after 18 hrs by broth microdilution method; settings: ATCC 10876, 18 h
[18] = tested on: Bacillus subtilis; experiment: Antimicrobial activity against Bacillus subtilis ATCC […] assessed as >99.9 % reduction in CFU after 18 hrs by broth microdilution method

Fc1ccc(-n2c(-c3cccc(Cl)c3)nn(CN3CCCC3)c2=S)cc1
125 µg/mL: MIC [2] | MIC [3] | MIC [8] | MIC [11] | MIC [13]
500 µg/mL: MIC [5] | MBC [6] | MBC [7] | MBC ([9]; read-out: MBC) | MIC [10] | MBC [15] | MIC ([16]; read-out: MIC)
> 1000 µg/mL: MBC [17]
250 µg/mL: MBC [1] | MIC [4] | MBC [12] | MBC [18]
1000 µg/mL: MBC ([14]; read-out: MBC)

S=c1n(CN2CCCC2)nc(-c2cccc(Cl)c2)n1-c1ccc(Br)cc1
62.5 µg/mL: MIC [3] | MIC [4] | MIC [8] | MIC [11]
31.2 µg/mL: MIC [13]
500 µg/mL: MBC [18]
> 1000 µg/mL: MBC [1] | MIC [5] | MBC [6] | MBC [7] | MBC ([9]; read-out: MBC) | MIC [10] | MBC [12] | MBC ([14]; read-out: MBC) | MBC [15] | MIC ([16]; read-out: MIC) | MBC [17]
250 µg/mL: MIC [2]

Fc1cccc(F)c1-n1c(-c2cccc(Cl)c2)nn(CN2CCCC2)c1=S
500 µg/mL: MBC [1] | MIC [10] | MBC [12] | MBC [18]
1000 µg/mL: MBC [3] | MBC [5] | MBC [6] | MBC [7] | MBC [9] | MBC [14] | MBC [15] | MIC [16] | MBC [17]
125 µg/mL: MIC [2] | MIC [4] | MIC [8] | MIC [11] | MIC [13]

Fc1ccc(F)c(-n2c(-c3cccc(Cl)c3)nn(CN3CCCC3)c2=S)c1
500 µg/mL: MBC [1] | MIC [10] | MBC [12] | MIC [16]
> 1000 µg/mL: MBC ([9]; read-out: MBC) | MBC [14] | MBC [15] | MBC [17]
125 µg/mL: MIC [2] | MIC [3] | MIC [4] | MIC [8] | MIC [11] | MIC [13]
1000 µg/mL: MBC [6] | MBC [7] | MBC [18]
250 µg/mL: MIC [5]
